# System: CHP212 cells
# Assay: Measurement of fluctuation in the amount of Aβ accumulation in cultured nerve cells
# Type: cell-based
# Details: cultured nerve cells (human neuroblastoma CHP212); Aβ in the medium by ELISA (Human/Rat Amyloid β1-42 kit) 48 hours after addition of test substance; 10^-12 M to 10^-6 M; versus DMSO control (100%), FIG. 1
# Excerpt: FIG. 1 is a diagram showing results of measuring fluctuation caused by a test substance of the formula (a) in the amount of Aβ accumulation in cultured nerve cells (CHP212 cells).
# In the diagram, each column represents, starting from the left, a result of measurement obtained in a well to which the test substance has been added so that its final concentration can be 10^−12M (10^−12 M), in a well to which the test substance has been added so that its final concentration can be 10^−11M (10^−11M), in a well to which the test substance has been added so that its final concentration can be 10^−10M (10^−10M), in a well to which the test substance A has been added so that its final concentration can be 10^−9M (10^−9M), in a well to which the test substance has been added so that its final concentration can be 10^−8M (10^−8M), in a well to which the test substance has been added so that its final concentration can be 10^−7M (10^−7M), and in a well to which the test substance has been added so that its final concentration can be 10^−6M (10^−6 M). The results are shown in % by setting a result obtained in a control well to which only a solvent (DMSO) has been added as 100%. […]
structure (smiles),measurement,value
O=c1cc(C(F)(F)F)c2cc(N(CC(F)(F)F)CC(F)(F)F)ccc2[nH]1 [formula (a)],amount of Aβ accumulation,markedly decreased

# — patent US20100204216A1, “PHARMACEUTICAL COMPOSITION FOR […]-beta PROTEIN ACCUMULATION” (SUMMITOMO CHEMICAL COMPANY LIMITED, priority 2007, published 2010)
